As usually defined, the MIC is the lowest concentration found to suppress growth.

The source of these data is paper PMC10648875 (Antimicrobial Agents and Chemotherapy, 2023).

Read-outs that look alike come from different tables or passages of the source. Where only a bound is given, the exact number is not on record here.

One assay deals with SHV-12 (Klebsiella pneumoniae, UniProt P0AD64, E235K/G234S/L31Q). The experiment in a line: Ki app of β-lactamase inhibition, purified enzyme. Format: biochemical. The protocol: (§1) The majority of purified β-lactamase enzymes used in the study were either expressed and purified internally ([35]) or obtained from Emerald Biostructures (Bainbridge Island, WA, USA). L1 enzyme was purified as described in reference ([36]).
Chain of SHV-12 (P0AD64 22-286 L31Q/G234S/E235K): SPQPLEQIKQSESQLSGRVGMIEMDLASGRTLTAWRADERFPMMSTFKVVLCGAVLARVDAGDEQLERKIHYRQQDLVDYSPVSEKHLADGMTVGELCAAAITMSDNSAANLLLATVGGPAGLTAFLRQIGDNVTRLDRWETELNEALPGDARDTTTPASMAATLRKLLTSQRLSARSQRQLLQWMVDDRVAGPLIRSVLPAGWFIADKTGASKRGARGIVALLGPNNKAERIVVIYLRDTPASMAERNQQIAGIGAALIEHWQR
(§2) Enzymes were mixed with BLIs at concentrations varying from 160 to 0.0027 µM in 50-mM Na-phosphate pH7.0, 0.1-mg/mL bovide serum albumin (BSA) (buffer A; 20-µM ZnCl2 was also added for all metalloenzymes) and incubated for 10 minutes at 37°C. Nitrocefin (50 µM) (10 µM for SHV-12) or 100 µM of imipenem (prewarmed at 37°C for 10 minutes) was added, and substrate cleavage profiles were recorded at 37°C at 490 nm every 10 seconds for 10 minutes or at 294 nm every 30 seconds for 1 hour for nitrocefin and imipenem, respectively. […] Ki app values (Ki for metalloenzymes) were calculated by the method of Waley ([37]).

Assay [1] relates to Escherichia coli NCTC 13353 (ECM7514), CTX-M-15. In words: MIC, reference strain. The note with it: Escherichia coli, NCTC13353. The format is cell-based. The procedure: (§3) Other BL/BLI combinations were tested at their recommended BLI concentrations. MIC values for the partner antibiotics and BLIs alone were also determined (Table 2; Table S1). All investigational and marketed BLIs enhanced the potency of antibiotics according to their spectrum of inhibition. MIC values against CLSI-approved QC strains were within acceptable ranges for drugs and combinations tested (Table 3).
(§4) Isolates were tested for antimicrobial susceptibility using the broth microdilution methodology per CLSI M07 (2018) guidelines ([40]). JMI Laboratories produced frozen-form 96-well panels with cation-adjusted Mueller-Hinton broth as the testing medium. Current CLSI quality assurance practices were followed when performing the susceptibility tests. MIC values were validated by concurrently testing the following CLSI-recommended ([27]) QC reference strains: E. coli NCTC 13353 (CTX-M-15), Klebsiella pneumoniae ATCC BAA-2814 (KPC-3), Klebsiella pneumoniae ATCC BAA-1705 (KPC-2), and K. pneumoniae ATCC 700603 (SHV-18). The inoculum density during susceptibility testing was monitored by bacterial colony counts. Where applicable, QC ranges for tested reference strains were those approved or published by the CLSI ([27]). Meropenem was purchased from Carbosynth; ceftolozane was synthesized at Acme Bioscience, Palo Alto, CA, USA; all other antibiotics were from Sigma Aldrich. Xeruborbactam was synthesized at Qpex Biopharma, San Diego, CA, USA. Avibactam was purchased from eNovation, Chemicals LLC, Bridgewater, NJ, USA. Vaborbactam was synthesized at The Medicines Company, San Diego, CA. Relebactam, taniborbactam, and relebactam were synthesized at Acme Bioscience.

In a further assay the target is IMP-1 (Serratia marcescens, UniProt P52699). The experiment in a line: Ki of metallo-β-lactamase inhibition, purified enzyme. Format: biochemical. The procedure:
as §1, §2

The subject of assay [2] is K. pneumoniae ATCC BAA-2814 (KP1074), KPC-3. In words: MIC, reference strain. Format: cell-based. As to conditions: Klebsiella pneumoniae, ATCCBAA2814; KPC-3; BLI at the fixed concentration in brackets; read-out: MIC. The procedure:
as §3
as §4, with “([27]).” for “([27]). Meropenem was purchased from Carbosynth; ceftolozane was synthesized at Acme Bioscience, Palo Alto, CA, USA; all other antibiotics were from Sigma Aldrich. Xeruborbactam was synthesized at Qpex Biopharma, San Diego, CA, USA. Avibactam was purchased from eNovation, Chemicals LLC, Bridgewater, NJ, USA. Vaborbactam was synthesized at The Medicines Company, San Diego, CA. Relebactam, taniborbactam, and relebactam were synthesized at Acme Bioscience.”

Assay [3] has as its system K. pneumoniae ATCC BAA-1705 (KPM1123), KPC-2. The experiment in a line: MIC, reference strain. Format: cell-based. As to conditions: Klebsiella pneumoniae, ATCCBAA1705; KPC-2; BLI at the fixed concentration in brackets; read-out: MIC. The protocol: as §3
as §4, with “([27]).” for “([27]). Meropenem was purchased from Carbosynth; ceftolozane was synthesized at Acme Bioscience, Palo Alto, CA, USA; all other antibiotics were from Sigma Aldrich. Xeruborbactam was synthesized at Qpex Biopharma, San Diego, CA, USA. Avibactam was purchased from eNovation, Chemicals LLC, Bridgewater, NJ, USA. Vaborbactam was synthesized at The Medicines Company, San Diego, CA. Relebactam, taniborbactam, and relebactam were synthesized at Acme Bioscience.”

For assay [4], the system named is K. pneumoniae CDC 0135 (KP1291), VIM-1. In words: MIC, reference strain. As to conditions: Klebsiella pneumoniae, BLI at the fixed concentration in brackets, read-out: MIC. Format: cell-based. The protocol: as §3
as §4, with “([27]).” for “([27]). Meropenem was purchased from Carbosynth; ceftolozane was synthesized at Acme Bioscience, Palo Alto, CA, USA; all other antibiotics were from Sigma Aldrich. Xeruborbactam was synthesized at Qpex Biopharma, San Diego, CA, USA. Avibactam was purchased from eNovation, Chemicals LLC, Bridgewater, NJ, USA. Vaborbactam was synthesized at The Medicines Company, San Diego, CA. Relebactam, taniborbactam, and relebactam were synthesized at Acme Bioscience.”

In assay [5] the test system is E. coli CDC 0069 (EC1106), NDM-1. The experiment in a line: MIC, reference strain. The format is cell-based. As to conditions: Escherichia coli, BLI at the fixed concentration in brackets, read-out: MIC. The procedure:
as §3
as §4, with “([27]).” for “([27]). Meropenem was purchased from Carbosynth; ceftolozane was synthesized at Acme Bioscience, Palo Alto, CA, USA; all other antibiotics were from Sigma Aldrich. Xeruborbactam was synthesized at Qpex Biopharma, San Diego, CA, USA. Avibactam was purchased from eNovation, Chemicals LLC, Bridgewater, NJ, USA. Vaborbactam was synthesized at The Medicines Company, San Diego, CA. Relebactam, taniborbactam, and relebactam were synthesized at Acme Bioscience.”

For assay [6], the system named is Klebsiella pneumoniae ATCC 700603 (KPM2881), SHV-18. The experiment in a line: MIC, reference strain. The note with it: Klebsiella pneumoniae, ATCC700603; SHV-18; BLI at the fixed concentration in brackets; read-out: MIC. Format: cell-based. The procedure: as §3
as §4, with “([27]).” for “([27]). Meropenem was purchased from Carbosynth; ceftolozane was synthesized at Acme Bioscience, Palo Alto, CA, USA; all other antibiotics were from Sigma Aldrich. Xeruborbactam was synthesized at Qpex Biopharma, San Diego, CA, USA. Avibactam was purchased from eNovation, Chemicals LLC, Bridgewater, NJ, USA. Vaborbactam was synthesized at The Medicines Company, San Diego, CA. Relebactam, taniborbactam, and relebactam were synthesized at Acme Bioscience.”

The test system of assay [7] is P. aeruginosa BAA-3197 (PA5257), KPC-2. In words: MIC, reference strain. The format is cell-based. As to conditions: Pseudomonas aeruginosa, BAA3197; KPC-2; BLI at the fixed concentration in brackets; read-out: MIC.
A further assay deals with P99 (Enterobacter cloacae, UniProt P05364). The experiment in a line: Ki app of β-lactamase inhibition, purified enzyme. Format: biochemical. The protocol:
as §1, §2

The target in a further assay is KPC-2 (Klebsiella pneumoniae, UniProt Q9F663). In words: Ki app of β-lactamase inhibition, purified enzyme. Format: biochemical. The note with it: 10-minute preincubation; nitrocefin substrate. The procedure: as §1, §2
Chain of KPC-2 (Q9F663 25-293 limits assumed): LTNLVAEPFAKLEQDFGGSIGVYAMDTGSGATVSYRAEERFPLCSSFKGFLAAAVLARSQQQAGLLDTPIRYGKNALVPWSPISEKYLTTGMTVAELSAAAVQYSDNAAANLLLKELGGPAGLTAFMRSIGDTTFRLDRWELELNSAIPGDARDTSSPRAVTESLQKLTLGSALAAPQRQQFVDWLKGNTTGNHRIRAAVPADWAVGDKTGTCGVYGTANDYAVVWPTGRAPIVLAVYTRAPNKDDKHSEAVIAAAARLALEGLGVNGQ
For another assay, the target named is OXA-23 (Acinetobacter baumannii, UniProt Q9L4P2). The experiment in a line: Ki app of β-lactamase inhibition, purified enzyme. The format is biochemical. The note with it: 10-minute preincubation; nitrocefin substrate. The procedure: as §1, §2
Chain of OXA-23 (Q9L4P2 18-273): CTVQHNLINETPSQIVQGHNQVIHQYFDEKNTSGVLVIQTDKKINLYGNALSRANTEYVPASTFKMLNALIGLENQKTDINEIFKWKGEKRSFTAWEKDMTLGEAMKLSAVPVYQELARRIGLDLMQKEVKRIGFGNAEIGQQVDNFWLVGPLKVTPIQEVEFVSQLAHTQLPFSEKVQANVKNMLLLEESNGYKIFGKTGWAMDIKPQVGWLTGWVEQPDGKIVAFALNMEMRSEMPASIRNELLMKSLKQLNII
The target of another assay is CTX-M-14 (Escherichia coli, UniProt Q9L5C7). The experiment in a line: Ki app of β-lactamase inhibition, purified enzyme. Format: biochemical. The note with it: 10-minute preincubation; nitrocefin substrate. The protocol:
as §1, §2

For a further assay, the target named is CTX-M-15 (Escherichia coli, UniProt Q9EXV5). The experiment in a line: Ki app of β-lactamase inhibition, purified enzyme. Format: biochemical. The note with it: 10-minute preincubation; nitrocefin substrate. The procedure: as §1, §2
Chain of CTX-M-15 (Q9EXV5 entry or part of it): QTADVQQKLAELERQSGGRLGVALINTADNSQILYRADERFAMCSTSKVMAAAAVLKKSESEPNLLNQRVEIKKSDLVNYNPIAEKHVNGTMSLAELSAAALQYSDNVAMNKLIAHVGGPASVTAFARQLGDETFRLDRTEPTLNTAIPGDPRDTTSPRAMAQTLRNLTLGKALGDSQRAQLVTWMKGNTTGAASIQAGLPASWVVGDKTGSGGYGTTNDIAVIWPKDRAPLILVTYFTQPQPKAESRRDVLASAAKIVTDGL
The next assay has as its target OXA-48 (Klebsiella pneumoniae, UniProt Q6XEC0). The experiment in a line: Ki app of β-lactamase inhibition, purified enzyme. The format is biochemical, Enterobacterales. As to conditions: 10-minute preincubation; nitrocefin substrate. The procedure:
as §1, §2

In the next assay the target is VIM-1 (Pseudomonas aeruginosa, UniProt A0A0F7KYQ8). The experiment in a line: Ki of metallo-β-lactamase inhibition, purified enzyme. The format is biochemical. As to conditions: 10-minute preincubation; nitrocefin substrate. The protocol: as §1, §2
A further assay addresses NDM-1 (Klebsiella pneumoniae, UniProt C7C422). The experiment in a line: biochemical. The procedure: as §1, §2
Where [8] appears, read: 10-minute preincubation, nitrocefin substrate, read-out: Ki app.
Setting [9] is: CTX-M-15, BLI at the fixed concentration in brackets, read-out: MIC.

Chain of IMP-1 (P52699 19-246 limits assumed): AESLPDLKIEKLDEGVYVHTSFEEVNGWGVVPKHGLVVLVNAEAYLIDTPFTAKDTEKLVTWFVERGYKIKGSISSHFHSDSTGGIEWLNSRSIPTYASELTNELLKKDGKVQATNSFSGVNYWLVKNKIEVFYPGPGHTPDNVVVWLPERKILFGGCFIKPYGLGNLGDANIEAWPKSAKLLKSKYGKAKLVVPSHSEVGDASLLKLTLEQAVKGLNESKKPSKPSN
Chain of NDM-1 (C7C422 29-270 limits assumed): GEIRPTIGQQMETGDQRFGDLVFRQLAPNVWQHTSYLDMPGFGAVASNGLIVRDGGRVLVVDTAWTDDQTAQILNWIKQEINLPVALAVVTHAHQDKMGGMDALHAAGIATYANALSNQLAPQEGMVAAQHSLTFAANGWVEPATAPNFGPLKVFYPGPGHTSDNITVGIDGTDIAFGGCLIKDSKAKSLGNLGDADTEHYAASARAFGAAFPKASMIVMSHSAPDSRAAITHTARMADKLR
Chain of P99 (P05364 21-381): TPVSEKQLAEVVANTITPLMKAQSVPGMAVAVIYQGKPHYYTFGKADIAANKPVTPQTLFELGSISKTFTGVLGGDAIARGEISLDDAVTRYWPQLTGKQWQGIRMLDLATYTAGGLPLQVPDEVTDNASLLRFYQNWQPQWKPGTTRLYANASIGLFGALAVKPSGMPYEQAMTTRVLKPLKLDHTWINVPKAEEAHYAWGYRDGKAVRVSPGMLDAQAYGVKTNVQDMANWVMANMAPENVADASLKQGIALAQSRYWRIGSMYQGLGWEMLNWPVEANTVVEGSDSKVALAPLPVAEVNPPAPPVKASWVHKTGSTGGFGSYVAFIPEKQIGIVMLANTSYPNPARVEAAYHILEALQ
Chain of CTX-M-14 (Q9L5C7 entry or part of it): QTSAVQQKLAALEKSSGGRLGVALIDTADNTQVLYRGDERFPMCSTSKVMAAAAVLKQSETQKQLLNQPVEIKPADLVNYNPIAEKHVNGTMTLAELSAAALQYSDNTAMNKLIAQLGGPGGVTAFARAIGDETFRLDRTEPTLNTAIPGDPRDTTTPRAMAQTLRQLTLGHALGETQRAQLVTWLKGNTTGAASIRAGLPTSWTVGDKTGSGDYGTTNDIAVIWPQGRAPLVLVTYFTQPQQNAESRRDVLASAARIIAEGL
Chain of OXA-48 (Q6XEC0 23-265 limits assumed): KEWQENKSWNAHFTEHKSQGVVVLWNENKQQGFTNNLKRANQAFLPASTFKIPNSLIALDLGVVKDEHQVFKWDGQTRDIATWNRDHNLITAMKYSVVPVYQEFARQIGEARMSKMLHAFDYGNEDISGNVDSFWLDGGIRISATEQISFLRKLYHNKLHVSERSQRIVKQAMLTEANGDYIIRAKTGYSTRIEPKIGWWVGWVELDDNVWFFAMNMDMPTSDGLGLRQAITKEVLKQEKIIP

Regarding `O=C(O)C[C@@H]1CC[C@H](NC(=O)Cc2cccs2)B(O)O1` [Vaborbactam, vaborbactam], the Ki was 21 ± 4 nM on SHV-12 (setting [8]) and greater than 160000 nM on IMP-1. The MIC in [1] (setting [9]), in [2], in [3], in [4], in [5] and in assay [6] was greater than 64 µg/mL in each case. Moreover, the MIC in assay [7] is greater than 64 µg/mL.

On to `CC(C)(O/N=C(\C(=O)N[C@@H]1C(=O)N2C(C(=O)[O-])=C(C[n+]3ccccc3)CS[C@H]12)c1csc(N)n1)C(=O)O` [CAZ, ceftazidime], for which the MIC in assay [1] (setting [9]) was 64 µg/mL; in assay [2], greater than 64 µg/mL; in assay [3], 64 µg/mL; in assay [4] it was greater than 64 µg/mL; in assay [5] it was greater than 64 µg/mL; in assay [6], 16 µg/mL. Moreover, the minimal inhibitory concentration (MIC) in assay [7] was greater than 64 µg/mL.

As to `C[C@@H](O)[C@H]1C(=O)N2C(C(=O)O)=C(SCCN=CN)C[C@H]12` [IMP, imipenem], the MIC in assay [1] was found to be 0.125 µg/mL; in [2], 64 µg/mL; in [3], 8 µg/mL; in assay [4], 8 µg/mL; in [5], 16 µg/mL; in [6], 0.06 µg/mL. Moreover, the MIC in assay [7] was greater than 64 µg/mL.

With `CC1=C[C@@H]2CN(C(=O)N2OS(=O)(=O)O)[C@@H]1C(N)=O` [Durlobactam, durlobactam], the Ki at P99 (setting [8]) was found to be 0.17 ± 0.08 nM; on KPC-2 it was 1.7 ± 0.4 nM; at OXA-23 it was 94 ± 32 nM; on CTX-M-14, 0.37 ± 0.16 nM; at CTX-M-15 it was 0.21 ± 0.12 nM; at OXA-48 it was 0.72 ± 0.27 nM. Also, the Ki at VIM-1, at IMP-1 and at NDM-1 was greater than 160000 nM in each case.

On to `NC(=O)[C@@H]1CC[C@@H]2CN1C(=O)N2OS(=O)(=O)O` [Avibactam, avibactam], for which the Ki was 10 ± 2 nM on P99 (Ki app); 0.41 ± 0.13 nM on CTX-M-14; 0.18 ± 0.08 nM at CTX-M-15; 0.24 ± 0.07 nM on SHV-12; greater than 160000 nM at VIM-1; greater than 160000 nM at IMP-1. The same molecule showed a Ki at NDM-1 greater than 160000 nM. Moreover, the minimal inhibitory concentration (MIC) was 16 µg/mL in [1] (setting [9]); 64 µg/mL in assay [2]; 16 µg/mL in [3]; greater than 64 µg/mL in assay [4]; 8 µg/mL in [5]; 32 µg/mL in assay [6]. Also, the minimum inhibitory concentration (MIC) in assay [7] was greater than 64 µg/mL.
